Assay results: patent EP1441698B1, “FLASHMELT ORAL DOSAGE FORMULATION” (Otsuka Pharmaceutical Co., Ltd., priority 2001, dated 2003)

Assay: Hygroscopicity: water content of crystals after storage in a desiccator (e.g. Karl Fischer method)
Assay type: physicochemical
Settings: after 24 hours inside a dessicator at 60°C and a humidity of 100%
Experimental: Aripiprazole Anhydride Crystals B of the present invention have low hygroscopicity. For example, Aripiprazole Anhydride Crystals B of the present invention maintain a water content of 0.4% or less after 24 hours inside a dessicator set at a temperature of 60°C and a humidity of 100%.
Well-known methods of measuring water content can be used as long as they are methods commonly used for measuring the water content of crystals. For example, a method such as the Karl Fischer method can be used.

water content: ≤ 0.4%
Structure (SMILES): O=C1CCc2ccc(OCCCCN3CCN(c4cccc(Cl)c4Cl)CC3)cc2N1 [Aripiprazole Anhydride Crystals B, aripiprazole]
